One assay deals with T1, COX-2 (Homo sapiens, UniProt P35354).
T1 construct: purchased Merck (Madrid, Spain)
T1 sequence (P35354 18-604): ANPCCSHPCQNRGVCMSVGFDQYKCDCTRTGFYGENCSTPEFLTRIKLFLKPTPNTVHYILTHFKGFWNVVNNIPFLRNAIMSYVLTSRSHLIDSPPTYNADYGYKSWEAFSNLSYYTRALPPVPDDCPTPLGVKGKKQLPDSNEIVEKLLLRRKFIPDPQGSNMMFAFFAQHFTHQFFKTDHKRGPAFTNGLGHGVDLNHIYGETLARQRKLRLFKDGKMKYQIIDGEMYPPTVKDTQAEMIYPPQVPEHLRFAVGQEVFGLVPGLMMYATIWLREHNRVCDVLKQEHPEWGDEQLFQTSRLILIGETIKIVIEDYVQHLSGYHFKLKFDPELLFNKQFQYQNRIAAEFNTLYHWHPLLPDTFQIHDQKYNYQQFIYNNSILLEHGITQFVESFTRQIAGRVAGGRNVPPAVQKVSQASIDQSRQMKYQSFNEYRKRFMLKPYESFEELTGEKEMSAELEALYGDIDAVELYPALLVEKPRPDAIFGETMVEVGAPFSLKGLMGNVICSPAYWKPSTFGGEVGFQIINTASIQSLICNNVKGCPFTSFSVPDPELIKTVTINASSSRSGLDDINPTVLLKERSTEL
The assay can be described thus: biochemical. The following applies: 5 concentrations of standard, linear regression of dose-response curve. On the procedure:
For the COX-2 assay, a COX-2 Inhibitor Screening Kit from Merck (Madrid, Spain) was purchased. […] In both assays, a spectrophotometer from BioTek Synergy from Agilent Technologies (Santa Clara, CA, USA) was used.
The COX-2 assay was performed using the COX fluorescent inhibitor assay kit with slight modifications and measured spectrophotometrically (BioTek Synergy, Agilent Technologies, Santa Clara, CA, USA). EVOO extracts were diluted (1/200) in ethanol:water (1:1, v/v). Briefly, the assay was carried out in a 96-well plate, in which 10 μL of diluted EVOO extracts and 80 μL of the reaction mix (containing the cofactor, the probe, and the COX-2 enzyme) were added. […] EVOO extracts were analyzed in duplicate.

Assay [1] deals with T2, acetylcholinesterase from Electrophorus electricus (Electrophorus electricus, UniProt O42275).
T2 construct: purchased Merck (Madrid, Spain)
T2 sequence (O42275 24-633): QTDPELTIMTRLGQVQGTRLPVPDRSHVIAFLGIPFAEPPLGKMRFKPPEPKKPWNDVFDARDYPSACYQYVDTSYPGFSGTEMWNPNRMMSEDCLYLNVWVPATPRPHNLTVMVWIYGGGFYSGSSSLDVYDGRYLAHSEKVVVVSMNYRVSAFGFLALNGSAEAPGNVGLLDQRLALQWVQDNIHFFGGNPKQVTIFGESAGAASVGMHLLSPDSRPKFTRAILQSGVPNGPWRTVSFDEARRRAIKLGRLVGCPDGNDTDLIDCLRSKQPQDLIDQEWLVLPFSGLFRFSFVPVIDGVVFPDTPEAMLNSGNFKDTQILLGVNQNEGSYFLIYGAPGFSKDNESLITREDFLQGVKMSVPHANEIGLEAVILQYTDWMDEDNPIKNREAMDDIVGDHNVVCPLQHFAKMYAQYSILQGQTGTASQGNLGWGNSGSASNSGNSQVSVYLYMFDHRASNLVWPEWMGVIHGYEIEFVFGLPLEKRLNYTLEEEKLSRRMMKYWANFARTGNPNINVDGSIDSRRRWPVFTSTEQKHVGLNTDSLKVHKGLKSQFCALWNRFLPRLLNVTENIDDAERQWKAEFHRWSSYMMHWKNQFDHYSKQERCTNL
Kind of assay: AChE inhibition assay (Ellman, spectrophotometric). The note with it: for IC50: 5 concentrations of standard, linear regression of dose-response curve. Format: biochemical. An excerpt: For the COX-2 assay, a COX-2 Inhibitor Screening Kit from Merck (Madrid, Spain) was purchased. For the analysis of AChE inhibition, acetylcholinesterase from Electrophorus electricus (lyophilized powder, 500 U), Base Trizma® (99.9% purity), chloridric acid (37%), Ellman Reactive (5,5′-dithiobis-(2-nitrobenzoic) acid, DTNB, 98% purity), acetylthiocholine iodide (≥98% purity), and physostigmine salicylate were purchased from Merck (Madrid, Spain). In both assays, a spectrophotometer from BioTek Synergy from Agilent Technologies (Santa Clara, CA, USA) was used.
AChE inhibitory activity was measured using a spectrophotometric assay described by Ellman et al. with slight modifications. First, in a 96-well plate, the AChE enzyme (10 mU mL^−1) (dissolved in 50 mM Tris-HCl buffer, pH 8.0) was incubated with the DTNB (150 μM) and 12 μL aliquots of the corresponding EVOO extracts in a final reaction volume of 250 μL. In addition, the inhibition control (physostigmine), the standards Ol, Lut, and Hyty, and the positive control of AChE activity (substituting the extracts/standards by the solvent of the extracts: ethanol:water (1:1, v/v) were tested. After 15 min of incubation at 30 °C, the substrate (acetylthiocholine iodide 150 μM, ATCh) was added, and AChE activity was determined by measuring the increase in absorbance reading at 405 nm for 15 min at 30 °C in a spectrophotometer (BioTek Synergy, Agilent Technologies, Santa Clara, CA, USA).
The AChE inhibitory activity of the EVOO extracts was expressed as a percentage of inhibition with respect to the positive activity control, indicating the average value obtained by analyzing the 3 extraction replicates obtained from each EVOO extract and analyzing them in duplicate. IC50, the concentration of a standard bioactive compound capable of inhibiting 50% of AChE activity, was determined by measuring 5 different concentrations of the standard compound in the reaction medium and interpolating in the linear regression of the dosis-response curve.
Background: DTNB colorimetry detects thiols as they appear.

What is called IC50 is the point on the concentration scale where inhibition reaches its midpoint. In the case of `C/C=C1/[C@H](O[C@@H]2O[C@H](CO)[C@@H](O)[C@H](O)[C@H]2O)OC=C(C(=O)OC)[C@H]1CC(=O)OCCc1ccc(O)c(O)c1` [Ol, oleuropein], the IC50 on COX-2 worked out at 9.65 µM; in assay [1] it was 417 µM.
Regarding `O=c1cc(-c2ccc(O)c(O)c2)oc2cc(O)cc(O)c12` [Lut, luteolin], the IC50 in assay [1] came out at 145 µM.
A word on the inhibition: it is the relative decrease from the control value, in per cent. For the compound `CNC(=O)Oc1ccc2c(c1)[C@]1(C)CCN(C)[C@@H]1N2C` [Physostigmin, physostigmine salicylate], the inhibition at 0.025 µM in assay [1] (0.025 µM of physostigmin in 250 μL of medium reaction containing 2.5 mU of AChE) amounted to 48.5 ± 1.69%.
Consider `OCCc1ccc(O)c(O)c1` [Hyty, hydroxytyrosol], for which the IC50 was found to be 10.8 µM at COX-2 and 328 µM in assay [1].

Source of the values: paper PMC11084348, “Characterization of Phenolic Compounds in Extra Virgin Olive Oil from Granada (Spain) and Evaluation of Its Neuroprotective Action” (International Journal of Molecular Sciences, 2024).
